# Measured values published in US4094964A, “Clonidine assay” (Hoffmann-La Roche Inc., priority 1977, dated 1978).
# Tested on: antibody in the antiserum of rabbit immunized by the clonidine bovine serum albumin immunogen
# Experiment: Radioimmunoassay specificity: competition with clonidine-14C for binding to the antiserum
# Details: 100 ng to 500 pg of competitor, antiserum 1:50, about 18 hours at 4° C., pH 7.4
# Experimental: The antiserum of Example 3 as used for the radioimmunoassay was diluted with normal rabbit serum which was diluted with phosphate-buffered saline, pH 7.4, at 1:10-dilution. To determine the antibody titre of antiserum, 0.1 ml of various dilutions of the antiserum was incubated in an assay tube (10 × 75 mm) with 2 ng of clonidine ^14 C approximately 3,000 cpm at 4° C. for about 18 hours. The volume was adjusted to 0.5 ml with phosphate-buffered saline, pH 7.4, which is the optimal pH for the assay. The antibody bound clonidine was separated from free clonidine by the addition of saturated ammonium sulfate which was adjusted to pH 7.4 with ammonium hydroxide as described by Farr, J. Infect. Dis 103, 239 (1958). After 2 washings with 50% saturated ammonium sulfate, the precipitate was dissolved in 0.5 ml of water. The content of the tube was transferred to counting vial and the tube was then washed 4 times with 3 ml of Riafluor. The 12 ml washings were all collected in the vial. The radioactivity was then counted with a Beckman liquid scintillation counter. The dilution of the antiserum chosen for further studies was 1:50.
# Appropriate volume of phosphate-buffered saline, pH 7.4 was added to all tubes containing 0.1 ml of the antiserum to make a final incubation volume of 0.5 ml. To the tubes were added 100 ul of clonidine-^14 C and various quantities ranging from 100 ng to 500 pg of clonidine, 2-(2,6-dichloro-4-hydroxyanilino)-2-imidazoline (4-hydroxyclonidine), 2-(2,6-dichloro-4-sulfonamidoanilino)-2-imidazoline (4-sulfonamidoclonidine),2-(2-chloro-3-methylanilino)-2-imidazoline, 2-(2-chloro-4-methylanilino)-2-imidazoline, 2-(2-chloro-6-methylanilino)-2-imidazoline, 2-anilino-2-imidazoline, 2-(2,6-dichloro-anilino)-2-methyl-2-imidazoline (2-methylclonidine), 2-(2,6-dichloroanilino)-1-methyl-2-imidazoline (1-methylclonidine), 1-acetamido-2-(2,6-dichloroanilino)-2-imidazoline (1-acetamidoclonidine), 2-(2,6-dichloroanilino)-2-pyrroline, 2-(2,6-dichloroanilino)-2-oxazoline, 2-(2,6-dichloroanilino)-2-benzimidazole, 2-(2,6-dichloroanilino)-1,3-dimethylquanidine, 2-(2,6-dichloroanilino)-1-methylguanidine, 2-(2,6-dichloroanilino)quanidine, aniline or 2-(2,6-dichlorobenzyl)-2-imidazoline. The tubes were then incubated for about 18 hours at 4° C. followed by precipitation with ammonium sulfate.
# The specificity of the antibody in the antiserum of rabbit immunized by the clonidine bovine serum albumin immunogen was determined by incubating the antiserum with 2-(2,6-dichloro-4-hydroxyanilino)-2-imidazoline (4-hydroxyclonidine), 2-(2,6-dichloro-4-sulfonamidoanilino)-2-imidazoline (4-sulfonamidoclonidine), 2-(2-chloro-3-methylanilino)-2-imidazoline, 2-(2-chloro-4-methylanilino)-2-imidazoline, 2-(2-chloro-6-methylanilino)-2-imidazoline, 2-anilino-2-imidazoline, 2-(2,6-dichloroanilino)-2-methyl-2-imidazoline (2-methylclonidine), 2-(2,6-dichloroanilino)-1-methyl-2-imidazoline (1-methylclonidine), 1-acetamido-2-(2,6-dichloroanilino)-2-imidazoline (1-acetamidoclonidine), 2-(2,6-dichloroanilino)-2-pyrroline, 2-(2,6-dichloroanilino)-2-oxazoline, 2-(2,6-dichloroanilino)-2-benzimidazole, 2-(2,6-dichloroanilino)-1,3-dimethylguanidine, 2-(2,6-dichloroanilino)-1-methylguanidine, 2-(2,6-dichloroanilino)guanidine, aniline or 2-(2,6-dichlorobenzyl)-2-imidazoline in the presence of labelled clonidine.
row,Compound,recognition by the antibody in the presence of labelled clonidine
1,"2-(2,6-dichloroanilino)-1,3-dimethylguanidine",failed to recognize
2,"2-(2,6-dichloroanilino)-2-methyl-2-imidazoline",failed to recognize
3,"2-(2,6-dichloroanilino)guanidine [2-(2,6-dichloro-anilino)guanidine]",failed to recognize
4,"CC(=O)NN1CCN=C1Nc1c(Cl)cccc1Cl [1-acetamido-2-(2,6-dichloroanilino)-2-imidazoline]",recognized
5,"Oc1cc(Cl)c(NC2=NCCN2)c(Cl)c1 [2-(2,6-dichloro-4-hydroxyanilino)-2-imidazoline]",recognized
6,"NS(=O)(=O)c1cc(Cl)c(NC2=NCCN2)c(Cl)c1 [2-(2,6-dichloro-4-sulfonamidoanilino)-2-imidazoline]",recognized
7,"Clc1cccc(Cl)c1NC1=NCCO1 [2-(2,6-dichloro-anilino)-2-oxazoline, 2-(2,6-dichloroanilino)-2-oxazoline]",failed to recognize
8,"CN1CCN=C1Nc1c(Cl)cccc1Cl [2-(2,6-dichloroanilino)-1-methyl-2-imidazoline]",failed to recognize
9,"Clc1cccc(Cl)c1CC1=NCCN1 [2-(2,6-dichlorobenzyl)-2-imidazoline]",failed to recognize
10,Cc1cccc(NC2=NCCN2)c1Cl [2-(2-chloro-3-methylanilino)-2-imidazoline],recognized
11,Cc1ccc(NC2=NCCN2)c(Cl)c1 [2-(2-chloro-4-methylanilino)-2-imidazoline],recognized
12,Cc1cccc(Cl)c1NC1=NCCN1 [2-(2-chloro-6-methylanilino)-2-imidazoline],recognized
13,c1ccc(NC2=NCCN2)cc1 [2-anilino-2-imidazoline],failed to recognize
14,Nc1ccccc1 [aniline],failed to recognize

# Same assay, conditions: antiserum 1:50, about 18 hours at 4° C., pH 7.4
row,concentration required relative to that of clonidine (cross-reactivity),Compound
1,about 40 times that of clonidine,"2-(2,6-dichloroanilino)-1-methylguanidine"
2,about 40 times that of clonidine,"Clc1cccc(Cl)c1NC1=CCCN1 [2-(2,6-dichloroanilino)-2-pyrroline]"

# Same assay, conditions: read-out: concentration producing a 50% inhibition of binding of clonidine-14C to the antibody; antiserum 1:50, about 18 hours at 4° C., pH 7.4, ammonium sulfate precipitation
row,Compound,IC50 [nM]
1,Clc1cccc(Cl)c1N=C1NCCN1 [Clonidine],25
